Laboratory results taken from patent publication EP1951748B1, “HEPATITIS C VIRUS VARIANTS” (Vertex Pharmaceuticals, Inc., priority 2005, dated 2007).
Where “and” joins values, the source holds several entries; their conditions need not be identical. Equal entries are not always repeated.

Key:
[1] = system: HCV replicon cells containing R155K; assay type: cell-based; conditions: for Replicon Assay (resistance of viral variant): R155K, value (spread in brackets)
Excerpt: (§1) The stable wild-type (mADE) and variant HCV sub-genomic replicon cell lines were generated using the T7 RNA runoff transcripts from the corresponding high efficiency Con1 replicon plasmids.
(§2) The stable wild-type and variant HCV sub-genomic replicon cell lines were generated using the T7 RNA runoff transcripts from the corresponding high efficiency Con1 replicon plasmids.

[2] = system: HCV replicon cells containing R155M; assay type: cell-based; conditions: for Replicon Assay (resistance of viral variant): R155M, value (spread in brackets)
Excerpt: as §1, §2

[3] = system: HCV replicon cells containing R155T; assay type: cell-based; conditions: for Replicon Assay (resistance of viral variant): R155T, value (spread in brackets)
Excerpt: as §1, §2

[4] = system: HCV replicon cells containing R155I; assay type: cell-based; conditions: value (spread in brackets), 2880 min
[5] = system: HCV replicon cells containing R155G; assay type: cell-based; conditions: value (spread in brackets), 2880 min
HCV NS3 protease T54A = assay type: biochemical
HCV NS3 protease A156S = assay type: biochemical
HCV NS3 protease A156T = assay type: biochemical
[6] = system: Con1-based HCV replicon cells with a different set of adaptive mutations (24-2); conditions: determined previously in 24-2 replicon cells (refs 25,41); read-out: 48-h IC50; cited from earlier work
genotype 1 HCV = test: Phase 1b clinical trial (Study VX04-950-101), plasma HCV RNA; conditions: for Δ in VL (Log change in HCV RNA from nadir to Day 14 (end of dosing)): 14 days, one value per subject
[7] = Hepatitis C virus, 48 h, read-out: Replicon IC50

For `COc1ccc2c(O[C@@H]3C[C@H]4C(=O)N[C@]5(C(=O)O)C[C@H]5/C=C\CCCCC[C@H](NC(=O)OC5CCCC5)C(=O)N4C3)cc(-c3csc(NC(C)C)n3)nc2c1` [BILN 2061], the “Replicon Assay (resistance of viral variant)” value (shortened to “Replicon Assay”) ([1]; 2880 min) was 355 (213), the “Replicon Assay” value ([2]; 2880 min) was 42.2(2.1) and the “Replicon Assay” value ([3]; 2880 min) was 645 (173). The “Replicon Assay” value [4] was 36.5 (9.5), the “Replicon Assay” value [5] was 821 (208) and the IC50 (HCV NS3 protease T54A; T54A) was 0.01 µM. For the same molecule, the Fold change (HCV NS3 protease T54A; enzyme IC50 of T54A compared to the genotype 1a HCV-H reference strain, 15 min) was 2.3, the IC50 (HCV NS3 protease A156S; A156S) was 0.0074 µM and the Fold change (HCV NS3 protease A156S; enzyme IC50 of A156S compared to the genotype 1a HCV-H reference strain, 15 min) was 1.6. The Fold change (HCV NS3 protease A156T; enzyme IC50 of A156T compared to the genotype 1a HCV-H reference strain, 15 min) was over 183.
In the case of `CC(C)(C)OC(=O)N[C@H]1CCCCC/C=C\[C@@H]2C[C@@]2(C(=O)NS(=O)(=O)C2CC2)NC(=O)[C@@H]2C[C@@H](OC(=O)N3Cc4cccc(F)c4C3)CN2C1=O` [ITMN-191], the “Replicon Assay” value ([1]; 2880 min) is reported as 62.8, the “Replicon Assay” value ([3]; 2880 min) is reported as 9.2 and the “Replicon Assay” value [4] is reported as 1.3(0.2). The “Replicon Assay” value [5] was 18.7(3.0).
`NC(=O)c1ncn([C@@H]2O[C@H](CO)[C@@H](O)[C@H]2O)n1` [Ribavirin, 1-beta-D-ribofuranosyl-1H-- 1,2,4-triazole-3-carboxamide] gave an IC50 [1, 7] of 37 ± 17 µM, a Fold change ([1]; replicon IC50 of R155K divided by that of the wild-type HCV replicon, 2880 min) of 0.6 ± 0.3 and an IC50 [2, 7] of 39 ± 5 µM. It also gave a Fold change ([2]; replicon IC50 of R155M divided by that of the wild-type HCV replicon, 2880 min) of 0.7 ± 0.1, an IC50 [3, 7] of 32 ± 18 µM and a Fold change ([3]; replicon IC50 of R155T divided by that of the wild-type HCV replicon, 2880 min) of 0.6 ± 0.3.
With `CC(C)(C)NC(=O)N[C@H](C(=O)N1C[C@H]2[C@@H]([C@H]1C(=O)NC(CC1CCC1)C(=O)C(N)=O)C2(C)C)C(C)(C)C` (stereo partly drawn) [SCH 503034] the “Replicon Assay” value ([1]; 2880 min) was 6.2(4.9), the “Replicon Assay” value ([2]; 2880 min) was 2.5(0.3) and the “Replicon Assay” value ([3]; 2880 min) was 10.2(2.4). For the same molecule, the “Replicon Assay” value [4] was 6.6(2.1) and the “Replicon Assay” value [5] was 2.8(0.6).
For `CCC[C@H](NC(=O)[C@@H]1[C@H]2CCC[C@H]2CN1C(=O)[C@@H](NC(=O)[C@@H](NC(=O)c1cnccn1)C1CCCCC1)C(C)(C)C)C(=O)C(=O)NC1CC1` [VX-950], the IC50 (HCV NS3 protease A156T; A156T, one row per patient-specific genetic background) is given as 21.5 µM and 15 µM, the IC50 (HCV NS3 protease A156I) is given as over 50 µM and the IC50 [6] is given as 0.354 µM. For the same molecule, the “HCV RNA levels at Day 14” value (genotype 1 HCV; 7 patients with continued response, down to undetectable (<10 IU/mL)) was at most 64 IU/mL, the “drop in HCV RNA (initial response)” value (genotype 1 HCV; 13 patients who later rebounded during dosing) was “greater than 2 log10” and the “Δ in VL (Log change in HCV RNA from nadir to Day 14 (end of dosing))” value (genotype 1 HCV; dose 450 (mg q8h)) was 1.82 and 0.65 and 0.41 and 1.84 and 1.06. For the same molecule, the “Δ in VL (Log change in HCV RNA from nadir to Day 14 (end of dosing))” value (genotype 1 HCV; dose 750 (mg q8h)) was 0.73 and 0.22 and the “Δ in VL (Log change in HCV RNA from nadir to Day 14 (end of dosing))” value (genotype 1 HCV; dose 1250 (mg q12h)) was 3.20 and 1.16 and 1.93 and 0.05 and 0.33 and 0.62 and 0.26.
